Where “and” joins values, the source holds several entries; their conditions need not be identical. Identical values can stand only once.
Test system: 883617-216-R-J1-PDC complex spheroid viability
Test: Anticancer human tumor 883617-216-R-J1-PDC patient-derived bladder carcinoma cell line growth inhibition [POLQ]
Conditions: for viability, T/C: stronger effect = lower value
Method: Multicellular complex tumor spheroid response to Polymerase (POL) inhibitors (novobiocin, ART-558, RP6685) in combination with a variety of drugs and investigational agents in selected tumor cell lines
The POL inhibitors (novobiocin, ART-558, and RP6685) were evaluated both individually and in combination with standard of care and investigational anticancer small molecules within a complex spheroid model of solid tumors. . Complex spheroids include a stromal component modeled by human endothelial cells (HUVEC) and fibroblasts modeled by human mesenchymal stem cells (MSCs). The concentration ranges selected for each drug and investigational agent were based upon clinically achievable concentrations if the clinical Cmax of the agent was known.
Compounds. The drugs and investigational agents: novobiocin (NSC847541), ART-558 (NSC835418), RP-6685 (NSC848927), peposertib (NSC802822), ceralasertib (NSC780249), elimusertib (NSC800525), camonsertib (NSC841442), AZD-1390 (NSC803789), olaparib (NSC753686), talazoparib (NSC767125), rucaparib (NSC756644), sotorasib (NSC818433), MRTX-1133 (NSC836407), SN-38 (NSC673596), topotecan (NSC609699), epotoside (NSC141540), doxorubicin (NSC123127), gemcitabine (NSC613327), 5-fluorouracil (NSC19893), paclitaxel (NSC125973), vemurafenib (NSC761431), MSA-2 (NSC828583), SN-011 (NSC837082), adavosertib (NSC754352), prexasertib (NSC758257), carboplatin (NSC241240) and oxaliplatin (NSC266046), were obtained from the National Cancer Institute (NCI) Developmental Therapeutics Program Chemical Repository (21). The FDA-approved anticancer drug set is available from the Developmental Therapeutics Program at https://dtp.cancer.gov/organization/dscb/obtaining/. […] The stock solutions were prepared in dimethyl sulfoxide (DMSO, Sigma-Aldrich, St. Louis, MO, cat. D2650), except for the platinum compounds which were prepared in saline (Quality Biological, Gaithersburg, MD, cat. 114-055-101), at 800-fold the tested concentration and stored at -70 degrees C prior to their use. All drugs and investigational agents were tested over a range starting from a high concentration at or near the clinical Cmax and decreasing in half-log increments. If the clinical Cmax for an agent had not been determined, the highest concentration tested was 10 microM, except for SN-38, which was tested at a high concentration of 1 microM.
Cell Culture. All cells were maintained in an incubator at 37 degrees C and 5% CO2 with 95% humidity. The PDC lines were cultured according to standard operating procedures established by the NCI PDMR (https://pdmr.cancer.gov). Table 3 of the manuscript, lists the cell lines along with the number of the three cell types plated to form the mct-spheroids and media for tumor cell growth. After thawing, all PDC lines, except 997537-175-T-J1-PDC and 415267-285-R-J2-PDC, were cultured in Matrigel-coated flasks prepared with a working solution of 1X Ham's F-12 nutrient mix, without supplementation (Thermo Fisher Scientific, cat. 11765054), 100 U/mL penicillin-streptomycin (Thermo Fisher Scientific, cat. 15140122), and 2.5% Matrigel (Corning Inc., Corning, NY, cat. 354248) for the first three passages. The two PDC lines 997537-175-T-J1-PDC and 415267-285-R-J2-PDC were cultured on uncoated flasks. The 857933-349-R-J2-PDC line was cultured in 6C/Colon 1B media containing advanced DMEM/F-12 (Thermo Fisher Scientific, cat. 12634028), 10 mM HEPES (Thermo Fisher Scientific, cat. 15630080), 1X GlutaMAX supplement (Thermo Fisher Scientific, cat. 35050061), 0.1 mg/mL primocin (InvivoGen, San Diego, CA, cat. ant-pm-2), 10% defined fetal bovine serum, heat inactivated (HyClone Laboratories Inc., Logan, UT, cat. SH30070.03HI), 50% L-WRN conditioned media (ATCC, cat. CRL-3276), 1.25 mM N-Acetyl-L-cysteine (Sigma-Aldrich, cat. A9165), 10 mM nicotinamide (Sigma-Aldrich, cat. N0636), 1X B-27 supplement (Thermo Fisher Scientific, cat. 17504044), 1X N-2 supplement (Thermo Fisher Scientific, cat. […]

[1] = compound alone, run of 01/08/2024
[2] = compound alone, run of 01/19/2024
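Further: spheroids exposed to compounds for seven days before readout.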
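Wherever viability, T/C is given: 100% = DMSO vehicle control viability.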

Row | Compound | viability, T/C (compound 0.0316 µM) | viability, T/C (compound 0.1 µM) | viability, T/C (compound 0.316 µM) | viability, T/C (compound 1 µM) | viability, T/C (compound 3.16 µM) | viability, T/C (compound 10 µM) | IC50 (curve of compound) | IC50 [1] | viability, T/C (compound 0.00316 µM) | viability, T/C (compound 0.01 µM) | IC50 [2] | viability, T/C (compound 0.000316 µM) | viability, T/C (compound 0.001 µM)
1 | CNCc1ccc(-c2[nH]c3cc(F)cc4c3c2CCNC4=O)cc1 | 92.6% and 94.5% and 97.7% | 92% and 95.6% and 100% | 96.7% and 92.8% and 89.4% | 96.9% and 93.2% and 104% | 95.2% and 98.2% and 99.7% | 77.3% and 88.2% and 74.5% | > 10 µM |  |  |  |  |  | 
2 | COC1C(OC(N)=O)C(O)C(Oc2ccc3c(O)c(NC(=O)c4ccc(O)c(CC=C(C)C)c4)c(=O)oc3c2C)OC1(C)C (stereo unspecified) | 98.8% [middle of 13 runs] | 99.7% [middle of 13 runs] |  | 103% [middle of 13 runs] | 100% [middle of 12 runs] |  |  | > 10 µM |  |  |  |  | 
3 | COc1cc(C2c3cc4c(cc3C(OC3OC5COC(C)OC5C(O)C3O)C3COC(=O)C23)OCO4)cc(OC)c1O (stereo unspecified) | 99.9% and 95.2% and 109% | 86.2% and 78.2% and 89.1% | 85.3% and 96.4% and 83.7% | 63.6% and 76.7% and 66.2% | 61.5% and 67.9% and 60% | 47.5% and 57.3% and 49.9% | 8.18 µM and > 10 µM |  |  |  |  |  | 
4 | COc1cc2cc(C(=O)CCC(=O)O)sc2cc1OC | 95.8% and 105% and 103% | 112% and 90% and 89.7% | 91.7% and 102% and 96.7% | 99.3% and 108% and 87.7% | 105% and 96.4% and 83.4% | 104% and 107% and 93.9% | > 10 µM |  |  |  |  |  | 
5 | COc1ccc([C@@H](O)c2cc(-c3ncnc4cc(N5CCOCC5)ccc34)c(F)cc2Cl)nn1 | 99% and 86.7% and 96.3% | 73% and 81.7% and 93.3% | 81.5% and 83.3% and 94% | 62.8% and 61.7% and 69% | 48.3% and 47.9% and 48.8% | 30.1% and 35.8% and 31.2% | 2.61 µM and 2.43 µM and 2.72 µM |  |  |  |  |  | 
6 | COc1cccc(OCCCN)c1-c1cc(Nc2cnc(C#N)cn2)n[nH]1 | 52.6% and 55.5% and 49% | 40.9% and 44.4% and 45.3% | 34.2% and 34.5% and 41.7% | 25% and 30.4% and 35.5% |  |  | 0.0406 µM and 0.057 µM and 0.0312 µM |  | 98.3% and 89.8% and 106% | 69.9% and 82.7% and 93.2% |  |  | 
7 | COc1cccc2c1C(=O)c1c(O)c3c(c(O)c1C2=O)CC(O)(C(=O)CO)CC3OC1CC(N)C(O)C(C)O1 (stereo unspecified) | 61.8% and 66.7% and 64% | 56.7% and 69.8% and 55.9% | 51.5% and 57.7% and 47.7% | 10.3% and 22.2% and 5.53% | 0.4% and 0.3% and 0.29% | 0.27% and 0.25% and 0.3% | 0.328 µM and 0.412 µM and 0.248 µM |  |  |  |  |  | 
8 | Cc1cccc(N(C)C(=O)C2C(O)CCN2c2nc(C)cc(C(F)(F)F)c2C#N)c1 (stereo unspecified) | 102% [middle of 13 runs] |  | 99.2% [middle of 13 runs] | 100% [middle of 13 runs] | 101% [middle of 13 runs] | 105% [middle of 13 runs] |  | > 10 µM |  |  | > 10 µM |  | 
9 | Cn1ncnc1[C@H]1c2n[nH]c(=O)c3cc(F)cc(c23)N[C@@H]1c1ccc(F)cc1 | 70% and 80.9% and 83.5% | 65.7% and 71.8% and 69.7% |  |  |  |  | > 0.1 µM |  | 87.6% and 95.6% and 95.1% | 83.5% and 90% and 77.4% |  | 94.7% and 100% and 90.6% | 85.8% and 100% and 85.9%
10 | Nc1ccc(C#CCN(C(=O)Cc2ncc(C(F)(F)F)cc2C(F)(F)F)c2ccc(F)cc2)nn1 | 102% [middle of 13 runs] | 98% [middle of 13 runs] | 102% [middle of 13 runs] | 99.9% [middle of 13 runs] | 104% [middle of 13 runs] | 112% [middle of 13 runs] |  |  |  |  | > 10 µM |  | 
11 | Nc1ccn(C2OC(CO)C(O)C2(F)F)c(=O)n1 (stereo unspecified) | 32.7% and 33% and 32.6% | 30.6% and 36.1% and 29.3% | 32.9% and 36.7% and 46.2% | 39.7% and 42.4% and 33.9% | 36.2% and 41.4% and 31.7% | 26.8% and 42.1% and 30.9% | < 0.0316 µM |  |  |  |  |  | 
12 | O=C(Nc1ccc(O)c(NS(=O)(=O)c2ccc(F)cc2)c1)c1ccc(-c2ccccc2)cc1 | 87.6% and 93.4% and 107% | 107% and 88.9% and 92.8% | 91.6% and 80.3% and 81.8% | 89.6% and 92.9% and 90.9% | 99.8% and 81.8% and 76.2% | 75.6% and 74.6% and 59% | > 10 µM |  |  |  |  |  | 
13 | O=C(c1cc(Cc2n[nH]c(=O)c3ccccc23)ccc1F)N1CCN(C(=O)C2CC2)CC1 | 88.1% and 93% and 83.1% | 82.1% and 100% and 97.3% | 92.3% and 104% and 81.8% | 87.4% and 87.5% and 87.9% | 91% and 82.4% and 88.4% | 58.5% and 61.9% and 69.8% | > 10 µM |  |  |  |  |  | 
14 | O=c1[nH]cc(F)c(=O)[nH]1 | 108% and 102% and 103% | 89.4% and 107% and 89.8% | 109% and 106% and 81.9% | 88.9% and 89.1% and 97.6% | 79.5% and 85.3% and 88.3% | 65.1% and 78.3% and 64.8% | > 10 µM |  |  |  |  |  | 

Reference: PubChem BioAssay AID1963833 (Molecular Pharmacology Branch, DTP, NCI, 2024)
